Broadly, the DC50 is the midpoint of the concentration-degradation curve. High values mean a less potent degrader, low ones a more potent degrader. The Dmax is the greatest extent of degradation seen.

Where only a bound is given, the exact number is not on record here.

Results on 16 compounds are retold here after patent US20260258039A1, “AROMATIC COMPOUND, METHOD FOR PREPARING SAME, AND USE THEREOF IN PREPARATION OF ESTROGEN RECEPTOR DEGRADER” (Hinova Pharmaceuticals Inc., priority 2022, published 2026).

In the test the target is T1, ER (Homo sapiens, UniProt P03372).
T1 construct: T47D breast cancer cells were subcultured in cell culture medium; endogenous in cells; host or cells: T47D breast cancer cells
T1 sequence (P03372 1-595): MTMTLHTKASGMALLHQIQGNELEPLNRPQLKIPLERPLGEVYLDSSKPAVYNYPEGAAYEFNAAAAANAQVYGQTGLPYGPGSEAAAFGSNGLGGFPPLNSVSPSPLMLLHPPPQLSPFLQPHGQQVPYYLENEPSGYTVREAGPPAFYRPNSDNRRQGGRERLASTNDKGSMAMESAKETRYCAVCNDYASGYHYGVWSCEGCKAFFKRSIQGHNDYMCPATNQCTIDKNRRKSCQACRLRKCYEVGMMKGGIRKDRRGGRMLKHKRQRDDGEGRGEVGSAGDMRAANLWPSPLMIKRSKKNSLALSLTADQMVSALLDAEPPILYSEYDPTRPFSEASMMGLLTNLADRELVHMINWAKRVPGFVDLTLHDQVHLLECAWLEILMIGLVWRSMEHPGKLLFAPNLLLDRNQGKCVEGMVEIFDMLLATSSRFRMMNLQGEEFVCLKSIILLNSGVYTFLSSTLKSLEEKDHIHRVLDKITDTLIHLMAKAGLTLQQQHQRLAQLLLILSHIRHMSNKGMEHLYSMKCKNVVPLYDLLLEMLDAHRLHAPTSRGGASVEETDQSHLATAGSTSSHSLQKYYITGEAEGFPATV
As to the kind of experiment: Degradation activities on ER (ELISA) in T47D breast cancer cells. In kind it is cell-based. As to conditions: T47D cells, 24 h, ELISA; for DC50: concentration required to degrade 50% of the target protein; for Dmax: maximum percentage of target protein degraded, read-out: Dmax. How it is done: T47D breast cancer cells were subcultured in cell culture medium, and then the cells in good growth condition were seeded into 96-well plates at 80 µL/well, with 2.5×10^4 cells per well. The cells were incubated in a 37° C., 5% CO2 incubator for 3 days. The drug was prepared into a 10 mM stock solution with dimethyl sulfoxide (DMSO). Prior to use, the stock solution was diluted with cell culture medium to obtain six final concentrations (100 nM, 25 nM, 6.25 nM, 1.56 nM, 0.39 nM, and […]), and gently mixed. Additionally, negative control wells (only containing culture medium) and positive control wells (only containing cells and DMSO) were included. After the cells were incubated in the incubator for 24 h, the cells were rinsed once with ice-cold 1×PBS. […] The plate was sealed with plastic film, and incubated in a 37° C. incubator for 2 h. The film was removed. 200 μL of 1× washing buffer was added to each well, and then the plate was shaken for 5 min. The washing buffer was discarded, and the plate was pat-dried. The plate was washed four times. 100 μL of freshly prepared detection antibody (green) was added to each well of the ELISA plate. The plate was sealed with plastic film, and then incubated in a 37° C. incubator for 1 h. The film was removed, and the detection antibody was discarded. The plate was pat-dried. 200 μL of 1× washing buffer was added to each well, and then the plate was shaken for 5 min. The washing buffer was discarded, and the plate was pat-dried. The plate was washed four times. 100 μL of freshly prepared HRP-labeled secondary antibody (red) was added to each well of the ELISA plate. The plate was sealed with plastic film, and incubated in a 37° C. incubator for 30 min. The film was removed, the secondary antibody was discarded, and the plate was pat-dried, followed by adding 200 μL of 1× washing buffer to each well. The plate was shaken for 5 min, and the washing buffer was discarded before pat-drying the plate. The plate was washed four times. 100 μl of TMB substrate was added to each well of the ELISA plate, followed by incubating in a 37° C. incubator for 5 min. 100 μL of STOP solution was added to each well of the ELISA plate, and the plate was gently shaken for a few seconds. The bottom of each well was wiped with lint-free cloth. Within 30 min after adding the STOP solution, the absorbance was read at 450 nm. […] The data were analyzed using the Dose-response equation in GraphPad Prism8 software to obtain the DC50 and Dmax values, and both of them are important indicators for measuring the degradation activities of compounds on target proteins. […] The Dmax value represents the maximum percentage of target protein that can be degraded by the compound.

As to `O=C1CCC(N2Cc3cc(N4CC5(CCN(CC6CCN(c7ccc([C@@H]8c9ccc(O)cc9OC[C@@H]8c8cccc(F)c8F)cc7)CC6)CC5)C4)ccc3C2=O)C(=O)N1` (relative stereo) [Example 36, 3-(5-(7-((1-(4-(cis-3-(2,3-difluorophenyl)-7-hydroxychroman-4-yl)phenyl)piperidin-4-yl)methyl)-2,7-diazaspiro[3.5]nonane-2-yl)-1-oxoisoindol-2-yl)piperidin-2,6-dione], the DC50 is less than 10 nM and the Dmax lay in the range of 50 to 75%.

Take `O=C1CCC(N2C(=O)c3ccc(N4CC5(CN(CC6CCN(c7ccc([C@@H]8c9ccc(O)cc9CC[C@@H]8c8ccccc8)cc7)CC6)C5)C4)cc3C2=O)C(=O)N1` (stereo partly drawn) [Example 3, 2-(2,6-dioxopiperidin-3-yl)-5-(6-((1-(4-((1R,2S)-6-hydroxyl-2-phenyl-1,2,3,4-tetrahydronaphthalen-1-yl)phenyl)piperidin-4-yl)methyl)-2,6-diazaspiro[3.3]heptan-2-yl)isoinodolin-1,3-dione]: the DC50 was greater than 100 nM. In the case of `O=C1CCC(N2Cc3cc(N4CC5(CCN(CC6CN(c7ccc(C8c9ccc(O)cc9OC[C@@H]8c8ccccc8F)cc7)C6)CC5)C4)ccc3C2=O)C(=O)N1` (stereo partly drawn) [Example 5, 3-(5-(7-((1-(4-(cis-3-(2-fluorophenyl)-7-hydroxypyran-4-yl)phenyl)azetidin-3-yl)methyl)-2,7-diazaspiro[3.5]nonane-2-yl)-1-oxoisoinodolin-2-yl)piperidin-2,6-dione], the DC50 was greater than 100 nM and the greatest degradation seen (Dmax) lay within 50 to 75%. As for `O=C1CCC(N2Cc3cc(N4CCC(N5CC6(CCN(c7ccc([C@@H]8c9ccc(O)cc9OC[C@@H]8c8ccccc8)cc7)CC6)C5)CC4)ccc3C2=O)C(=O)N1` (stereo partly drawn) [Example 13], the DC50 is less than 10 nM and the Dmax was greater than 75%.

`O=C1CCC(N2Cc3cc(N4CCC(N5CC6(CCN(c7ccc([C@H]8c9ccc(O)cc9OC[C@H]8c8ccccc8F)cc7)CC6)C5)CC4)ccc3C2=O)C(=O)N1` (stereo partly drawn) [Example 15]: the DC50 is greater than 100 nM and the Dmax was less than 50%. In the same order, the values of `O=C1CCC(N2Cc3cc(N4CCC(N5CC6(CCN(c7ccc([C@@H]8c9ccc(O)cc9CC[C@@H]8c8ccccc8F)cc7)CC6)C5)CC4)ccc3C2=O)C(=O)N1` (stereo partly drawn) [Example 19, 3-(5-(4-(7-(4-(cis-2-(2-fluorophenyl)-6-hydroxyl-1,2,3,4-tetrahydronaphthalen-1-yl)phenyl)-2,7-diazaspiro[3.5]nonane-2-yl)piperidin-1-yl)-1-oxoisoinodolin-2-yl)piperidin-2,6-dione] are less than 10 nM and greater than 75%.

`O=C1CCC(N2Cc3cc(N4CCC(N5CC6(CCN(c7ccc([C@@H]8c9ccc(O)cc9OC[C@@H]8c8ccccc8F)cc7)CC6)C5)CC4)ccc3C2=O)C(=O)N1` (stereo partly drawn) [Example 20, 3-(5-(4-(7-(4-(cis-3-(2-fluorophenyl)-7-hydroxychroman-4-yl)phenyl)-2,7-diazaspiro[3.5]nonane-2-yl)piperidin-1-yl)-1-oxoisoinodolin-2-yl)piperidin-2,6-dione] returned a DC50 of less than 10 nM. In the case of `O=C1CCC(N2Cc3cc(N4CCC(N5CC6(CCN(c7ccc([C@H]8c9ccc(O)cc9CC[C@H]8c8ccccc8F)cc7)CC6)C5)CC4)ccc3C2=O)C(=O)N1` (stereo partly drawn) [Example 21, 3-(5-(4-(7-(4-((1S,2R)-2-(2-fluorophenyl)-6-hydroxyl-1,2,3,4-tetrahydronaphthalen-1-yl)phenyl)-2,7-diazaspiro[3.5]nonane-2-yl)piperidin-1-yl)-1-oxoisoinodolin-2-yl)piperidin-2,6-dione], the DC50 is greater than 100 nM and the Dmax is less than 50%. In the case of `O=C1CCC(N2Cc3cc(N4CCC(N5CC6(CCN(c7ccc([C@@H]8c9ccc(O)cc9OC[C@@H]8c8ccccc8)cc7F)CC6)C5)CC4)ccc3C2=O)C(=O)N1` (stereo partly drawn) [Example 23, 3-(5-(4-(7-(4-(cis-3-(2-fluorophenyl)-7-hydroxychroman-4-yl)phenyl)-2,7-diazaspiro[3.5]nonane-2-yl)piperidin-1-yl)-1-oxoisoinodolin-2-yl)piperidin-2,6-dione], the DC50 fell in the range of 10 to 50 nM and the Dmax is greater than 75%. As for `O=C1CCC(N2Cc3cc(N4CC5(CCN(CC6CCN(c7ccc([C@H]8c9ccc(O)cc9OC[C@H]8c8cccc(F)c8F)cc7F)CC6)CC5)C4)ccc3C2=O)C(=O)N1` (stereo partly drawn) [Example 24, 3-(5-(7-((1-(4-((3R,4S)-3-(2,3-difluorophenyl)-7-hydroxychroman-4-yl)-2-fluorophenyl)piperidin-4-yl)methyl)-2,7-diazaspiro[3.5]nonane-2-yl)-1-oxoisoinodolin-2-yl)piperidin-2,6-dione], the DC50 is greater than 100 nM and the Dmax was less than 50%. For `Cc1ccccc1[C@H]1COc2cc(O)ccc2[C@H]1c1ccc(N2CCC(CN3CCC4(CC3)CN(c3ccc5c(c3)CN(C3CCC(=O)NC3=O)C5=O)C4)CC2)cc1` (stereo partly drawn) [Example 35, 3-(5-(7-((1-(4-(cis-7-hydroxyl-3-(o-methylphenyl)chroman-4-yl)phenyl)piperidin-4-yl)methyl)-2,7-diazaspiro[3.5]nonane-2-yl)-1-oxoisoinodolin-2-yl)piperidin-2,6-dione], the DC50 fell in the range of 10 to 50 nM and the Dmax fell in the range of 50 to 75%. Consider `O=C1CCC(N2Cc3cc(N4CC5(CCN(CC6CCN(c7c(F)cc([C@H]8c9ccc(O)cc9OC[C@H]8c8ccccc8F)cc7F)CC6)CC5)C4)ccc3C2=O)C(=O)N1` (stereo partly drawn) [Example 38, 3-(5-(7-((1-(2,6-difluoro-4-((3R,4S)-3-(2-fluorophenyl)-7-hydroxychroman-4-yl)phenyl)piperidin-4-yl)methyl)-2,7-diazaspiro[3.5]nonane-2-yl)-1-oxoisoindol-2-yl)piperidin-2,6-dione], for which the DC50 was greater than 100 nM and the Dmax was less than 50%. In the same order, the values of `O=C1CCC(N2Cc3cc(N4CC5(CCN(CC6CCN(c7c(F)cc([C@H]8c9ccc(O)cc9OC[C@H]8c8cccc(F)c8F)cc7F)CC6)CC5)C4)ccc3C2=O)C(=O)N1` (stereo partly drawn) [Example 39, 3-(5-(7-((1-(4-((3R,4S)-3-(2,3-difluorophenyl)-7-hydroxychroman-4-yl)-2,6-difluorophenyl)piperidin-4-yl)methyl)-2,7-diazaspiro[3.5]nonane-2-yl)-1-oxoisoinodolin-2-yl)piperidin-2,6-one] are greater than 100 nM and less than 50%. Consider `O=C1CCC(N2Cc3cc(N4CC5(CCN(CC6CCN(c7c(F)cc([C@H]8c9ccc(O)cc9OC[C@H]8c8c(F)cccc8F)cc7F)CC6)CC5)C4)ccc3C2=O)C(=O)N1` (stereo partly drawn) [Example 41], for which the DC50 was greater than 100 nM and the Dmax was less than 50%. In the same order, the values of `O=C1CCC(N2Cc3cc(N4CC5(CCN(CC6CCN(c7c(F)cc(C8=C(c9c(F)cccc9F)COc9cc(OCc%10ccccc%10)ccc98)cc7F)CC6)CC5)C4)ccc3C2=O)C(=O)N1` (stereo not drawn) [Example 43] are greater than 100 nM and less than 50%.

In the case of `O=C1CCC(N2Cc3cc(N4CC5(CCN(CC6CCN(c7ccc([C@@H]8c9ccc(O)cc9OC[C@@H]8c8ccc(F)cc8F)cc7)CC6)CC5)C4)ccc3C2=O)C(=O)N1` (stereo partly drawn) [Example 46, 3-(5-(7-((1-(4-(cis-3-(2,4-difluorophenyl)-7-hydroxychroman-4-yl)phenyl)piperidin-4-yl)methyl)-2,7-diazaspiro[3.5]nonane-2-yl)-1-oxoisoinodolin-2-yl)piperidin-2,6-dione], the DC50 fell in the range of 10 to 50 nM and the Dmax lay within 50 to 75%.
